15 molecules from ChEMBL document CHEMBL1141900, “Synthesis and antibacterial activity of C2-fluoro, C6-carbamate ketolides, and their C9-oximes” (2005) can be followed below.

What all share (assay type): functional
One test has as its system Enterococcus faecalis. Nature of the test: Minimum inhibitory concentration of the compound againstEnterococcus faecalis ATCC 51299 with an erm(B)-encoded ribosomal methylase was determined.
The next test deals with Haemophilus influenzae. Nature of the test: Minimum inhibitory concentration of the compound against Haemophilus influenzae OC4882 was determined.
Another test has as its system Staphylococcus aureus. Nature of the test: Minimum inhibitory concentration of the compound against erythromycin-susceptible Staphylococcus aureus Smith OC4172 was determined.
In test [1] the test system is Streptococcus pneumoniae. Nature of the test: Minimum inhibitory concentration of the compound against 3 […] Streptococcus pneumoniae OC4421 with an mef(A) efflux-mediated resistance was determined.
For test [2], the system named is Streptococcus pneumoniae. The test is described as follows: Minimum inhibitory concentration of the compound against erythromycin-susceptible Streptococcus pneumoniae was determined.
Test [3] has as its system Streptococcus pneumoniae. Nature of the test: Minimum inhibitory concentration of the compound against 3 […] Streptococcus pneumoniae OC4051 with an erm(B)-ribosomal methylase-mediated resistance was determined.

Converted amounts (≈) assume the structure as drawn.

As to `CC[C@H]1OC(=O)[C@@](C)(F)C(=O)[C@H](C)[C@@H](O[C@@H]2O[C@H](C)C[C@H](N(C)C)[C@H]2O)[C@](C)(OC(=O)NC/C=C/c2ccc(-c3cccnn3)cc2)C[C@@H](C)/C(=N\O)[C@H](C)[C@H]2NC(=O)O[C@@]21C`, the MIC in the test with Enterococcus faecalis is greater than 4 µg/mL; in the test on Haemophilus influenzae, 2 µg/mL (≈ 2.3 µM); against Staphylococcus aureus, 0.5 µg/mL (≈ 0.575 µM); in the test with Streptococcus pneumoniae [1] it was 0.25 µg/mL (≈ 0.288 µM); in the test with Streptococcus pneumoniae [2], 0.03 µg/mL (≈ 0.0345 µM); with Streptococcus pneumoniae [3] it was 0.06 µg/mL (≈ 0.069 µM).
For the molecule `CC[C@H]1OC(=O)[C@@](C)(F)C(=O)[C@H](C)[C@@H](O[C@@H]2O[C@H](C)C[C@H](N(C)C)[C@H]2O)[C@](C)(OC(=O)NC/C=C/c2ccc(-n3cnnc3)cc2)C[C@@H](C)C(=O)[C@H](C)[C@H]2NC(=O)O[C@@]21C`, the MIC against Enterococcus faecalis is greater than 16 µg/mL; in the test with Haemophilus influenzae it was 8 µg/mL (≈ 9.49 µM); in the test with Staphylococcus aureus, 0.5 µg/mL (≈ 0.593 µM); in the test on Streptococcus pneumoniae [1] it was 0.5 µg/mL (≈ 0.593 µM); in the test on Streptococcus pneumoniae [2] it was 0.06 µg/mL (≈ 0.0712 µM); with Streptococcus pneumoniae [3], 0.12 µg/mL (≈ 0.142 µM).
`CC[C@H]1OC(=O)[C@@](C)(F)C(=O)[C@H](C)[C@@H](O[C@@H]2O[C@H](C)C[C@H](N(C)C)[C@H]2O)[C@](C)(OC(=O)NC/C=C/c2ccccc2)C[C@@H](C)/C(=N\O)[C@H](C)[C@H]2NC(=O)O[C@@]21C`: the MIC in the test on Enterococcus faecalis is greater than 16 µg/mL; in the test on Haemophilus influenzae, 2 µg/mL (≈ 2.53 µM); with Staphylococcus aureus, 0.25 µg/mL (≈ 0.316 µM); in the test on Streptococcus pneumoniae [1], 0.5 µg/mL (≈ 0.632 µM); against Streptococcus pneumoniae [2] it was 0.03 µg/mL (≈ 0.0379 µM); against Streptococcus pneumoniae [3], 0.12 µg/mL (≈ 0.152 µM).
On to `CC[C@H]1OC(=O)[C@@](C)(F)C(=O)[C@H](C)[C@@H](O[C@@H]2O[C@H](C)C[C@H](N(C)C)[C@H]2O)[C@](C)(OC(=O)NC/C=C/c2ccc(-c3ccncn3)cc2)C[C@@H](C)C(=O)[C@H](C)[C@H]2NC(=O)O[C@@]21C`, for which the MIC in the test on Enterococcus faecalis was greater than 16 µg/mL; with Haemophilus influenzae it was 4 µg/mL (≈ 4.68 µM); against Staphylococcus aureus, 0.25 µg/mL (≈ 0.293 µM); in the test with Streptococcus pneumoniae [1] it was 0.12 µg/mL (≈ 0.141 µM); in the test on Streptococcus pneumoniae [2], 0.03 µg/mL (≈ 0.0351 µM); against Streptococcus pneumoniae [3] it was 0.06 µg/mL (≈ 0.0703 µM).
Regarding `CC[C@H]1OC(=O)[C@@](C)(F)C(=O)[C@H](C)[C@@H](O[C@@H]2O[C@H](C)C[C@H](N(C)C)[C@H]2O)[C@](C)(OC(=O)NC/C=C/c2ccc3ncccc3c2)C[C@@H](C)C(=O)[C@H](C)[C@H]2NC(=O)O[C@@]21C`, the MIC against Enterococcus faecalis came out at 4 µg/mL (≈ 4.84 µM); against Haemophilus influenzae it was 4 µg/mL (≈ 4.84 µM); against Staphylococcus aureus it was 0.25 µg/mL (≈ 0.302 µM); in the test with Streptococcus pneumoniae [1] it was 0.06 µg/mL (≈ 0.0726 µM); in the test on Streptococcus pneumoniae [2], 0.06 µg/mL (≈ 0.0726 µM); against Streptococcus pneumoniae [3] it was 0.06 µg/mL (≈ 0.0726 µM).
Consider `CC[C@H]1OC(=O)[C@@](C)(F)C(=O)[C@H](C)[C@@H](O[C@@H]2O[C@H](C)C[C@H](N(C)C)[C@H]2O)[C@](C)(OC(=O)NCc2cn(-c3ncccn3)cn2)C[C@@H](C)C(=O)[C@H](C)[C@H]2NC(=O)O[C@@]21C`, for which the MIC against Enterococcus faecalis was greater than 16 µg/mL; in the test on Haemophilus influenzae, 4 µg/mL (≈ 4.89 µM); in the test on Staphylococcus aureus, 0.25 µg/mL (≈ 0.306 µM); in the test with Streptococcus pneumoniae [1], 0.5 µg/mL (≈ 0.611 µM); in the test with Streptococcus pneumoniae [2], 0.03 µg/mL (≈ 0.0367 µM); with Streptococcus pneumoniae [3], 0.12 µg/mL (≈ 0.147 µM).
Consider `CC[C@H]1OC(=O)[C@@](C)(F)C(=O)[C@H](C)[C@@H](O[C@@H]2O[C@H](C)C[C@H](N(C)C)[C@H]2O)[C@](C)(OC(=O)NC/C=C/c2ccc3ncccc3c2)C[C@@H](C)/C(=N\O)[C@H](C)[C@H]2NC(=O)O[C@@]21C`, for which the MIC against Enterococcus faecalis was 2 µg/mL (≈ 2.38 µM); with Haemophilus influenzae it was 2 µg/mL (≈ 2.38 µM); against Staphylococcus aureus it was 0.25 µg/mL (≈ 0.297 µM); against Streptococcus pneumoniae [1], 0.12 µg/mL (≈ 0.143 µM); in the test with Streptococcus pneumoniae [2], 0.03 µg/mL (≈ 0.0356 µM); with Streptococcus pneumoniae [3], 0.03 µg/mL (≈ 0.0356 µM).
For the molecule `CC[C@H]1OC(=O)[C@@](C)(F)C(=O)[C@H](C)[C@@H](O[C@@H]2O[C@H](C)C[C@H](N(C)C)[C@H]2O)[C@](C)(OC(=O)NC/C=C/c2ccc(-n3cccn3)cc2)C[C@@H](C)C(=O)[C@H](C)[C@H]2NC(=O)O[C@@]21C`, the MIC against Enterococcus faecalis is 8 µg/mL (≈ 9.5 µM); with Haemophilus influenzae, 8 µg/mL (≈ 9.5 µM); against Staphylococcus aureus it was 0.25 µg/mL (≈ 0.297 µM); against Streptococcus pneumoniae [1], 0.5 µg/mL (≈ 0.594 µM); in the test with Streptococcus pneumoniae [2], 0.03 µg/mL (≈ 0.0356 µM); with Streptococcus pneumoniae [3] it was 0.12 µg/mL (≈ 0.143 µM).
As to `CC[C@H]1OC(=O)[C@@](C)(F)C(=O)[C@H](C)[C@@H](O[C@@H]2O[C@H](C)C[C@H](N(C)C)[C@H]2O)[C@](C)(OC(N)=O)C[C@@H](C)C(=O)[C@H](C)[C@H]2NC(=O)O[C@@]21C`, the MIC with Enterococcus faecalis was greater than 16 µg/mL; in the test on Haemophilus influenzae it was 8 µg/mL (≈ 12.1 µM); against Staphylococcus aureus it was 1 µg/mL (≈ 1.52 µM); against Streptococcus pneumoniae [1], 2 µg/mL (≈ 3.03 µM); against Streptococcus pneumoniae [2] it was 0.12 µg/mL (≈ 0.182 µM); in the test with Streptococcus pneumoniae [3], greater than 16 µg/mL.
Regarding `CC[C@H]1OC(=O)[C@@](C)(F)C(=O)[C@H](C)[C@@H](O[C@@H]2O[C@H](C)C[C@H](N(C)C)[C@H]2O)[C@](C)(OC(=O)NC/C=C/c2ccc(-c3ncccn3)o2)C[C@@H](C)C(=O)[C@H](C)[C@H]2NC(=O)O[C@@]21C`, the MIC is greater than 16 µg/mL in the test on Enterococcus faecalis; 16 µg/mL (≈ 19 µM) against Haemophilus influenzae; 0.5 µg/mL (≈ 0.592 µM) in the test on Staphylococcus aureus; 0.5 µg/mL (≈ 0.592 µM) in the test with Streptococcus pneumoniae [1]; 0.06 µg/mL (≈ 0.0711 µM) in the test on Streptococcus pneumoniae [2]; 0.12 µg/mL (≈ 0.142 µM) in the test with Streptococcus pneumoniae [3].
As for `CC[C@H]1OC(=O)[C@H](C)C(=O)[C@H](C)[C@@H](O[C@@H]2O[C@H](C)C[C@H](N(C)C)[C@H]2O)[C@](C)(OC)C[C@@H](C)C(=O)[C@H](C)[C@H]2N(CCCCn3cnc(-c4cccnc4)c3)C(=O)O[C@]12C` [TELITHROMYCIN], the MIC against Enterococcus faecalis was 16 µg/mL (≈ 19.7 µM); against Haemophilus influenzae, 2 µg/mL (≈ 2.46 µM); in the test with Staphylococcus aureus, 0.12 µg/mL (≈ 0.148 µM); in the test on Streptococcus pneumoniae [1], 0.12 µg/mL (≈ 0.148 µM); against Streptococcus pneumoniae [2] it was no more than 0.015 µg/mL; against Streptococcus pneumoniae [3], 0.06 µg/mL (≈ 0.0739 µM).
For `CC[C@H]1OC(=O)[C@@](C)(F)C(=O)[C@H](C)[C@@H](O[C@@H]2O[C@H](C)C[C@H](N(C)C)[C@H]2O)[C@](C)(OC(=O)NC/C=C/c2cn(-c3cnccn3)cn2)C[C@@H](C)C(=O)[C@H](C)[C@H]2NC(=O)O[C@@]21C`, the MIC amounted to 16 µg/mL (≈ 19 µM) against Enterococcus faecalis; 8 µg/mL (≈ 9.48 µM) with Haemophilus influenzae; 0.25 µg/mL (≈ 0.296 µM) in the test on Staphylococcus aureus; 0.25 µg/mL (≈ 0.296 µM) in the test on Streptococcus pneumoniae [1]; 0.03 µg/mL (≈ 0.0355 µM) in the test on Streptococcus pneumoniae [2]; 0.06 µg/mL (≈ 0.0711 µM) with Streptococcus pneumoniae [3].
Take `CC[C@H]1OC(=O)[C@@](C)(F)C(=O)[C@H](C)[C@@H](O[C@@H]2O[C@H](C)C[C@H](N(C)C)[C@H]2O)[C@](C)(OC(=O)NC/C=C/c2cncc(-c3ccccn3)c2)C[C@@H](C)C(=O)[C@H](C)[C@H]2NC(=O)O[C@@]21C`: the MIC with Enterococcus faecalis was 4 µg/mL (≈ 4.68 µM); with Haemophilus influenzae it was 8 µg/mL (≈ 9.37 µM); against Staphylococcus aureus, 0.25 µg/mL (≈ 0.293 µM); in the test with Streptococcus pneumoniae [1], 0.12 µg/mL (≈ 0.141 µM); with Streptococcus pneumoniae [2], 0.03 µg/mL (≈ 0.0351 µM); against Streptococcus pneumoniae [3], 0.06 µg/mL (≈ 0.0703 µM).
For the molecule `CC[C@H]1OC(=O)[C@@](C)(F)C(=O)[C@H](C)[C@@H](O[C@@H]2O[C@H](C)C[C@H](N(C)C)[C@H]2O)[C@](C)(OC(=O)NC/C=C/c2ccc(-c3ccccn3)cc2)C[C@@H](C)C(=O)[C@H](C)[C@H]2NC(=O)O[C@@]21C`, the MIC against Enterococcus faecalis was determined as 4 µg/mL (≈ 4.69 µM); in the test with Haemophilus influenzae, 4 µg/mL (≈ 4.69 µM); against Staphylococcus aureus, 0.25 µg/mL (≈ 0.293 µM); against Streptococcus pneumoniae [1], 0.12 µg/mL (≈ 0.141 µM); against Streptococcus pneumoniae [2] it was 0.06 µg/mL (≈ 0.0703 µM); against Streptococcus pneumoniae [3], 0.06 µg/mL (≈ 0.0703 µM).
As to `CC[C@H]1OC(=O)[C@@](C)(F)C(=O)[C@H](C)[C@@H](O[C@@H]2O[C@H](C)C[C@H](N(C)C)[C@H]2O)[C@](C)(OC(=O)NC/C=C/c2ccc(-c3cccnn3)cc2)C[C@@H](C)C(=O)[C@H](C)[C@H]2NC(=O)O[C@@]21C`, the MIC with Enterococcus faecalis worked out at 4 µg/mL (≈ 4.68 µM); in the test with Haemophilus influenzae it was 4 µg/mL (≈ 4.68 µM); against Staphylococcus aureus, 0.12 µg/mL (≈ 0.141 µM); against Streptococcus pneumoniae [1], 0.12 µg/mL (≈ 0.141 µM); in the test with Streptococcus pneumoniae [2], 0.03 µg/mL (≈ 0.0351 µM); against Streptococcus pneumoniae [3], 0.06 µg/mL (≈ 0.0703 µM).
